Consider one compound from patent publication US20110319360A1, “Method of including apoptosis/Cell death in leukemia cell using a purine nucleoside analogue” (U.S. Department of Veterans Affairs, priority 2010, published 2011).

“And” between values parts separate entries of the source, which are not always exact repeats. Identical values can stand only once.

The conditions of series [1]: Reference 44; cited from earlier work.
Another series relates to CD3-positive T-cell. The series can be described thus: Annexin V apoptosis of normal T-lymphocytes in PBMCs. It is filed as cell-based, human. The following applies: 72 hours. The protocol:
PBMCs were cultured at 10^6 cells/ml in a 12-well tissue culture plate. Cells were treated for 72 hours with vehicle control or drug for 72 hours, then harvested as above for staining. PBMCs were resuspended at 2×10^5 cells/tube in 100 μl buffer (HBSS, 0.5% bovine serum albumin, 0.1% sodium azide) and incubated for 30 min with CD3-FITC or CD19-FITC antibodies according to the manufacturer's protocol (BD Biosciences). Cells were then incubated with PE-annexin V and 7-AAD (BD Biosciences) in annexin V binding buffer (BD Biosciences) for 15 minutes prior to analysis of apoptosis on the Guava EasyCyte™ Plus system.

Series [2] has as its system CLL cells. In words: Annexin V / 7-AAD apoptosis assay on CLL cells. It is filed as cell-based, human. The following applies: for median percent drug-specific apoptosis: 72-hour; for median drug-specific apoptosis: n=43. The protocol:
Cells were cultured in either of two different media: Hybridoma SFM with 10% FBS or RPMI 1640 medium (Sigma) supplemented with 5% heat-inactivated human AB serum (Sigma), 50 units/ml penicillin, 50 μg/ml streptomycin, 2 mM L-glutamine, 25 mM HEPES (N2-hydroxyethylpiperazine-N′-2-ethanesulfonic acid), 100 μM MEM non-essential amino acids, and 1 mM sodium pyruvate (GIBCO). CLL cell sensitivity to LMP-420 was not affected by culture media, as determined by direct comparison of the apoptotic effects observed in both media for seven samples. After drug activity in the presence of human AB serum was confirmed, further studies were performed in Hybridoma SFM with 10% FBS.
CLL cells were cultured at 2×10^6 cells/ml in a volume of 100 μl/well in a U-bottom 96-well tissue culture plate (BD Biosciences, San Jose, Calif.) with either vehicle control or with drug. After 24, 48, or 72 hours of incubation, cells were analyzed for apoptosis by three different methods. For the annexin-based assay, 100 μl of Guava Nexin Reagent (Millipore, Billerica, Mass.) was added for 20 min. Cells were analyzed for annexin V-PE and 7-AAD staining with flow cytometric analysis by the Guava EasyCyte™ Plus system (Millipore). To facilitate comparison of samples with different levels of spontaneous apoptosis, drug-specific apoptosis is reported. Drug-specific apoptosis excludes background spontaneous apoptosis and was calculated as follows: 100%×(drug-induced apoptosis−spontaneous apoptosis)/(100−spontaneous apoptosis) (Reference 13).

Series [3] concerns CLL cells. The series can be described thus: MTS cytotoxicity assay on primary CLL cells. The following applies: Homo sapiens, CLL cell. It is filed as cell-based. The protocol:
On the same day that heparin-anticoagulated venous blood was collected from participants, CLL cells were purified by methods described previously (Reference 11). Briefly, CLL cells were isolated from whole blood using the RosetteSep® B-cell enrichment cocktail (Stem Cell Technologies, Vancouver, BC, Canada) together with ficoll-Hypaque density gradient centrifugation. This method yielded CLL cell purity of greater than 95% CD5^+CD19^+ B-cells.
2.5×10^5 CLL cells were incubated in triplicate or quadruplicate in a 96-well tissue culture plate (Costar, Corning, N.Y.) with serial dilutions of LMP-420, fludarabine, and/or recombinant TNF-alpha (R&D Systems, Minneapolis, Minn.) in Hybridoma serum free media (SFM) (GIBCO/Invitrogen, Carlsbad, Calif.) containing 10% heat-inactivated fetal bovine serum (FBS) (Sigma) at 37° C. with 5% CO2. After 72 hours, 20 μl CellTiter 96® AQueous One Solution Cell Proliferation Assay (Promega, Madison, Wis.) MTS (3-(4,5 dimethylthiazol-2-yl)-5-(3-carboxymethoxyphenyl-2-(4-sulfophenyl)-2H-tetrazolium) reagent was added to each well and the absorbance was read at 490 nm on a Thermomax microplate reader (Molecular Devices, Sunnyvale, Calif.). We calculated fractional cytotoxicity as performed previously (Reference 12), comparing absorbance at 490 nm from treated cells to control cells incubated with media alone.
The concentration effective at killing 50% of CLL cells compared to media alone (ED50) was calculated when 50% fractional cytotoxicity occurred within the range of serial dilutions tested (Reference 12). If the ED50 fell below or above this range, it was set to either the lowest or the highest concentration tested, respectively, for the purposes of statistical analyses and graphical representation.
(Tetrazolium dyes change colour on reduction, which living cells bring about.)

The target of the next series is T1, human hERG (Homo sapiens, UniProt Q12809).
T1 construct: host or cells: HEK-293
T1 sequence (Q12809 whole entry): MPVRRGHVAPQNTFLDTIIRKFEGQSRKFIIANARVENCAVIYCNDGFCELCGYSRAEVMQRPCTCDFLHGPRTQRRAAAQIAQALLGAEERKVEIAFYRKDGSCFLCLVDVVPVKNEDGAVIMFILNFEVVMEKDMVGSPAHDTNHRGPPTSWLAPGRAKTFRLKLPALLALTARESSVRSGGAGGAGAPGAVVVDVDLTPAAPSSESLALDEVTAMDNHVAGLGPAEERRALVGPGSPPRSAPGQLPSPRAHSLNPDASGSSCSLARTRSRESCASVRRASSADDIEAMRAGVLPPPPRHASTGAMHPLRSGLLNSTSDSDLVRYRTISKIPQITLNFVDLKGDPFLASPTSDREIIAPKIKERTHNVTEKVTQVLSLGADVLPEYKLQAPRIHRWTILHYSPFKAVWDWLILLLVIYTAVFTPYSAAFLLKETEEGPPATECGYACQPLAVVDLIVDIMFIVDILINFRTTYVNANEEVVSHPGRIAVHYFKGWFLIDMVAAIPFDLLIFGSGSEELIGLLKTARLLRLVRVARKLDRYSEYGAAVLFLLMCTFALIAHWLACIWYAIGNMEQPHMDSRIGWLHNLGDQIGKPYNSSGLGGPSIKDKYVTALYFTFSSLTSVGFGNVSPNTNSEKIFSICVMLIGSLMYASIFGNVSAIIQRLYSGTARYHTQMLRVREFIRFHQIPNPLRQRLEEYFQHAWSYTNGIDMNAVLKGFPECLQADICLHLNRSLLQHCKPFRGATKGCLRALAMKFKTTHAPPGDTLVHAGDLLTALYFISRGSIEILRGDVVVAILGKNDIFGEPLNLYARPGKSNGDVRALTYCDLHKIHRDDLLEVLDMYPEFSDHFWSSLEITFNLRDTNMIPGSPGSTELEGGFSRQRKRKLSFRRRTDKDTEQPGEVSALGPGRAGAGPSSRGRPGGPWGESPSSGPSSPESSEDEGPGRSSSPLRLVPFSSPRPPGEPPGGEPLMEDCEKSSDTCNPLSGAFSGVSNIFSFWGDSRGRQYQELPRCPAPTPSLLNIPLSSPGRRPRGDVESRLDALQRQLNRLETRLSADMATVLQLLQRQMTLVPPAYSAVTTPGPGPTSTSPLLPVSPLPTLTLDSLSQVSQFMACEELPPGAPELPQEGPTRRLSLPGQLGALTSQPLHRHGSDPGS
The series can be described thus: hERG [3H] Astemizole radioligand binding. The following applies: 1.5 nM [3H] Astemizole, HEK-293 cells, 60 min, 25° C.; read-out: IC50 for inhibition of radioligand binding to the cardiac potassium channel. The protocol:
This assay was performed by MDS Pharma Services. Human recombinant HEK-293 cells over-expressing the human hERG receptor were incubated for 60 min at 25° C. with 1.5 nM [^3H] Astemizole in the presence or absence of the indicated concentrations of LMP-420. Nonspecific binding (<10%) was determined by binding of radioligand in 10 μM Astemizole. All samples were determined in duplicate.
Background: Block of hERG is tested as a sign of cardiac risk.

Consider `Nc1nc(Cl)c2ncn(CCCCCB(O)O)c2n1` [LMP-420, 2-amino-6-chloro-9-[5(dihydroxyboryl)-pentyl] purine], for which, in series [1], the oral bioavailability entry is on record as “orally bioavailable”. Besides, the tolerability in vivo result in series [1] is on record as “well-tolerated in vivo”. Also, in the series on CD3-positive T-cell (1 μM, n=3), the “average percent drug-specific apoptosis, T-cells” value is reported as −1%. For the same compound, the “apoptosis in normal T-lymphocytes” value in the series with CD3-positive T-cell (concentrations up to 90 μM) is given as “did not induce significant apoptosis”. Also, the “median percent drug-specific apoptosis” value is reported as 34% in the series with CLL cells [2] (5,000 nM, mutated IgVH subgroup (n=30)) and 59% in the series on CLL cells [2] (5,000 nM, unmutated IgVH subgroup (n=10)). Besides, the median drug-specific apoptosis in the series with CLL cells [2] (5,000 nM, 24 hours) worked out at 15%; in the series on CLL cells [2] (5,000 nM, 48 hours) it was 28%; with CLL cells [2] (5,000 nM, 72 hours), 32%. For the same compound, in the series on CLL cells [2] (5,000 nM, patients with 11q22 deletion or complex cytogenetics (n=3)), the “apoptosis, range” value was 13 to 58% and 13-58%. The EC50 was 5000 nM in the series with CLL cells [2] (Homo sapiens, CLL cell, 72 hours, five-patient sample set, read-out: mean dose required for 50% drug-specific apoptosis by annexin V staining); about 0.85 µM in the series on CLL cells [3] (72 h, five patients of the nucleosome ELISA set, 72 hours, read-out: mean ED50, fractional cytotoxicity by MTS); 0.245 µM with CLL cells [3] (72 h, primary CLL cells, 72 hours, MTS, mean of 35 samples, read-out: mean concentration required to induce 50% cytotoxicity (ED50)); 0.162 µM in the series on CLL cells [3] (CLL samples with favorable risk cytogenetic aberrations, n=27, read-out: median MTS ED50); 0.027 to 2.52 µM in the series on CLL cells [3] (CLL samples with favorable risk cytogenetic aberrations, n=27, read-out: range of MTS ED50); 0.332 µM in the series with CLL cells [3] (CLL samples with poor risk cytogenetic aberrations, n=5, read-out: median MTS ED50). Further, in the series with CLL cells [3] (mean value from the MTS experiments, read-out: ED50 (μM), CLL), the EC50 was 0.25 µM. Further, the “staining indicative of primary necrosis (7-AAD-positive, annexin-V-negative)” value with CLL cells [2] (all samples, 72 hours) is reported as under 2%. For the same compound, the “samples in which apoptosis was induced (49 of 50)” value in the series with CLL cells [2] (highest dose (5,000 nM), 72 hours) stood at 98%. The IC50 at human hERG was over 100000 nM.

As a reminder, the IC50 is the concentration needed to halve the response being measured.
